Data reported in publication PMC9100525, “CsCuAOs and CsAMADH1 Are Required for Putrescine-Derived γ-Aminobutyric Acid Accumulation in Tea” (Foods, 2022).

Experiments:
Format in all cases: biochemical
CsAMADH1 = target: T1, CsAMADH1 (Camellia sinensis, UniProt I7F760); assay: NADH formation at […] nm; Lineweaver-Burk; settings: 0.1 M potassium phosphate pH 8.0; 0.001 M NAD+ as co-substrate; unit "Mm" [sic] (substrate range 0.1-100 mM)
T1 construct: recombinant GST fusion, pGEX-4T-1, purified; plastid-localized; gene from Tea Plant Information Archive, locus id not given
T1 sequence (I7F760 1-505): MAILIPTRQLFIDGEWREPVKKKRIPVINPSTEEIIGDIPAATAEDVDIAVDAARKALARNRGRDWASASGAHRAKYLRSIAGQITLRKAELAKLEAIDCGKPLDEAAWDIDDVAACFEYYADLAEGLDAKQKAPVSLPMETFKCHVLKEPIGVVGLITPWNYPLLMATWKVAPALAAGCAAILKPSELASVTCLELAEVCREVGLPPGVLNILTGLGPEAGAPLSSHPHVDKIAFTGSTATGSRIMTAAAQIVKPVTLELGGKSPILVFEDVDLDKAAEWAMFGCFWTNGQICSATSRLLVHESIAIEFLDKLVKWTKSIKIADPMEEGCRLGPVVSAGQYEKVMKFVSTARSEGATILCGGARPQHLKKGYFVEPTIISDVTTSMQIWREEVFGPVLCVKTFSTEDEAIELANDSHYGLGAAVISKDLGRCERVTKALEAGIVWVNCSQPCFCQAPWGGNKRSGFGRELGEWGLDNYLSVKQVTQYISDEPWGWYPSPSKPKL

CsCuAO3 = target: T2, CsCuAO3 (Camellia sinensis, UniProt A0A4S4DQ49); assay: peroxidase-coupled 4-aminoantipyrine/N,N-dimethylaniline assay at […] nm; Lineweaver-Burk; settings: 0.1 M potassium phosphate pH 6.5; O2 co-substrate; unit "Mm" [sic] (substrate range 0.1-100 mM)
T2 construct: gene TEA_013658; recombinant GST fusion, pGEX-4T-1, purified; peroxisomal; copper/TPQ enzyme, CuAOs stated as homodimer in general; gene from Tea Plant Information Archive, locus id not given
T2 sequence (A0A4S4DQ49 1-679): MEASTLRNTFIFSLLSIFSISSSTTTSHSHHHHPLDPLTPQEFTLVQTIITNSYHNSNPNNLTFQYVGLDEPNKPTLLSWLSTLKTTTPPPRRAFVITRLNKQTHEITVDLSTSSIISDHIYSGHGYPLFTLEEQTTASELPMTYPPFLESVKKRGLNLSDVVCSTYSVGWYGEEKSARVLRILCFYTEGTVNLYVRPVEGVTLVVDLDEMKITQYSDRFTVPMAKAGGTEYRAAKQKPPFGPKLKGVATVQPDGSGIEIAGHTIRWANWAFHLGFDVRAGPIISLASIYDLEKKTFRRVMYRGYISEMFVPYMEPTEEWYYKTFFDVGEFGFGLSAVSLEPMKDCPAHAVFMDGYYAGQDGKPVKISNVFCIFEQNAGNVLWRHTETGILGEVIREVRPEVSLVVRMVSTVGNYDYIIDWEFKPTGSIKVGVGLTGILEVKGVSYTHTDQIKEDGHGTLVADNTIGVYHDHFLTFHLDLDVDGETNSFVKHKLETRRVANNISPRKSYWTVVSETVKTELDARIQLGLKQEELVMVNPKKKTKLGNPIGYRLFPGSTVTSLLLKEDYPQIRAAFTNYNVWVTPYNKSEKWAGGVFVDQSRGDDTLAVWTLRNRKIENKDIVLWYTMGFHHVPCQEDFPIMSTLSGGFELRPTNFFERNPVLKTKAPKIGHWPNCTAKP

CsCuAO1 = target: T3, CsCuAO1 (Camellia sinensis, UniProt A0A4S4D8A3); assay: as above; settings: 0.1 M potassium phosphate pH 6.5; O2 co-substrate; unit "Mm" [sic] (substrate range 0.1-100 mM)
T3 construct: gene TEA_026770; recombinant GST fusion, pGEX-4T-1, purified; peroxisomal; copper/TPQ enzyme, CuAOs stated as homodimer in general; gene from Tea Plant Information Archive, locus id not given
T3 sequence (A0A4S4D8A3 1-662): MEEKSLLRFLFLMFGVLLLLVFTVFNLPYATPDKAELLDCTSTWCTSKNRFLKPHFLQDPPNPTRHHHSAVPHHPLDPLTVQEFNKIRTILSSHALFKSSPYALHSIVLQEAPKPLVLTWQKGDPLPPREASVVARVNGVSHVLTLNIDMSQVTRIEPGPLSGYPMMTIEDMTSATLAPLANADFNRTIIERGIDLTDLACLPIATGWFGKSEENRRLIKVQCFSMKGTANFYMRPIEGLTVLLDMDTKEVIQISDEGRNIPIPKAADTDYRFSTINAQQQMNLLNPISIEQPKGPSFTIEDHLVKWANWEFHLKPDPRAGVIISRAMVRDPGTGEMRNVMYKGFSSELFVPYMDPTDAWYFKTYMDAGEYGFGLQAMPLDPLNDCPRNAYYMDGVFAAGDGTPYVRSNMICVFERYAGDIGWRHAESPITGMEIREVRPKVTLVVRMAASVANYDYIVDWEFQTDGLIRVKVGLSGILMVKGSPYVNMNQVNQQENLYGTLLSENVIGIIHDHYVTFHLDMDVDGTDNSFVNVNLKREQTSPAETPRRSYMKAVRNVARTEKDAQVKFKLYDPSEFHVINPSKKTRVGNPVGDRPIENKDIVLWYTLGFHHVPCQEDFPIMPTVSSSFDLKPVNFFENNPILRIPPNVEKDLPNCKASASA

With `NCCCC=O` [4-ABAL] the Km (CsAMADH1) was 25.7 Mm.

In the case of `NCCCCN` [putrescine], the Km (CsCuAO3) is reported as 15.8 Mm and the Km (CsCuAO1) is reported as 21.9 Mm.
